Structures can show the parent of a compound that is named as a salt. Where two headings read alike, the source gives them in different places. Marks after values point to notes of the source that are not given here.
Key:
human lymphocytes [1] = system: human lymphocytes
CHO-K1 cells [2] = conditions: cited from earlier work
human lymphocytes [3] = system: human lymphocytes; remark: listed apart in the source
CHO-K1 cells [4] = conditions: Chinese hamster
mice [5] = conditions: cited from earlier work
rats = conditions: cited from earlier work
Bacillus subtilis = conditions: cited from earlier work
bacteria (Ames test) = conditions: cited from earlier work
[6] = Wistar rat, oral dose of 40mg/kg, microsuspension, after 4h; cited from earlier work
mouse bone marrow = conditions: in vivo, po; cited from earlier work
Saccharomyces cerevisiae = conditions: cited from earlier work
CHL cells = conditions: cited from earlier work
[7] = female, Han Wistar [Cr1 WI(Han)], rat, in vivo, po, 400 mg/kg
in vitro = conditions: male, human, Cytotoxicity (%)
[8] = humans, 100mg once or twice a day for 3 days, original commercial oral GI formulation; cited from earlier work
[9] = system: bone marrow polychromatic erythrocytes (PCE); conditions: female, rat, in vivo; for % Micronucleated PCE / % PCE: Han Wistar [Crl:WI(Han)], po
Drosophila melanogaster = conditions: in vivo; cited from earlier work
mice [10] = conditions: mouse, in vivo; cited from earlier work
[11] = format: in vivo; conditions: rat, plasma, po
[12] = system: C3H/10T1/2 Cl 8 mouse embryo fibroblasts; conditions: cited from earlier work
[13] = human PK studies, high therapeutic doses; cited from earlier work

CCC[S+]([O-])c1ccc2[nH]c(NC(=O)OC)nc2c1 (stereo not drawn) [Albendazole sulfoxide, albendazole sulfoxide]
Lowest non-significant doses (micronuclei) (human lymphocytes [1]; male, human): 3.0 µg per ml
Td (threshold dose) (CHO-K1 cells [2]): 1.708 µg/mL
Td–L–CI (lower confidence Td) (CHO-K1 cells [2]): 1.474 µg/mL
%C+ micronuclei (human lymphocytes [3]; male, human): 71%
%C− micronuclei (human lymphocytes [3]; male, human): 29%
BMD10 (CHO-K1 cells [4]): 1.100 µg/mL
BMDL10 (CHO-K1 cells [4]): 0.861 µg/mL

CCCSc1ccc2nc(NC(=O)OC)[nH]c2c1 [Albendazole, albendazole]
Fold increases in MN over concurrent vehicle control (human lymphocytes [1]; male, human): 9.3
Lowest non-significant doses (micronuclei) (human lymphocytes [1]; male, human): 0.04 µg per ml
Carcinogenicity (in words) (mice [5]; lifetime studies in the mouse): negative
Carcinogenicity (in words) (rats; lifetime studies in the rat): negative
Td (threshold dose) (CHO-K1 cells [2]): 0.005 µg/mL
Td–L–CI (lower confidence Td) (CHO-K1 cells [2]): 0.003 µg/mL
%C+ micronuclei (human lymphocytes [3]; male, human): 72%
%C− micronuclei (human lymphocytes [3]; male, human): 28%
BMD10 (CHO-K1 cells [4]): 0.037 µg/mL
BMDL10 (CHO-K1 cells [4]): 0.027 µg/mL

CCCCNC(=O)n1c(NC(=O)OC)nc2ccccc21 [Benomyl, benomyl]
Td (threshold dose) (CHO-K1 cells [2]): 0.659 µg/mL
Td–L–CI (lower confidence Td) (CHO-K1 cells [2]): 0.520 µg/mL
BMD10 (CHO-K1 cells [4]): 0.450 µg/mL
BMDL10 (CHO-K1 cells [4]): 0.348 µg/mL

COC(=O)Nc1nc2ccccc2[nH]1 [Carbendazim, carbendazim]
Td (threshold dose) (CHO-K1 cells [2]): 0.346 µg/mL
Td–L–CI (lower confidence Td) (CHO-K1 cells [2]): 0.268 µg/mL
BMD10 (CHO-K1 cells [4]): 0.310 µg/mL
BMDL10 (CHO-K1 cells [4]): 0.235 µg/mL

O=P1(N(CCCl)CCCl)NCCCO1 (stereo not drawn) [Cyclophosphamide, cyclophosphamide]
Fold increases in MN over concurrent vehicle control (human lymphocytes [1]; male, human): 5.6
Mean MNBN cell frequency (%) (human lymphocytes [1]; male, human): 1.40* %
% micronuclei with a centromere (human lymphocytes [3]; male, human): 16%
% micronuclei without a centromere (human lymphocytes [3]; male, human): 84%

COC(=O)Nc1nc2cc(C(=O)c3ccc(F)cc3)ccc2[nH]1 [Flubendazole, flubendazole]
Mean MNBN cell frequency (%) (human lymphocytes [1]; 0.050 µg/ml): 0.10%
Mean MNBN cell frequency (%) (human lymphocytes [1]; 0.075 µg/ml): 0.30%
Mean MNBN cell frequency (%) (human lymphocytes [1]; 0.100 µg/ml): 0.55%
Mean MNBN cell frequency (%) (human lymphocytes [1]; 0.250 µg/ml): 1.15* %
Mean MNBN cell frequency (%) (human lymphocytes [1]; 0.5 µg/ml): 1.75* %
Mean MNBN cell frequency (%) (human lymphocytes [1]; 0.500 µg/ml): 3.15* %
Mean MNBN cell frequency (%) (human lymphocytes [1]; 1.0 µg/ml): 3.38* %
Mean MNBN cell frequency (%) (human lymphocytes [1]; 1.00 µg/ml): 4.25* %
Mean MNBN cell frequency (%) (human lymphocytes [1]; 2.0 µg/ml): 0.05%
Mean MNBN cell frequency (%) (human lymphocytes [1]; 3.0 µg/ml): 5.15* %
Mean MNBN cell frequency (%) (human lymphocytes [1]; 6.0 µg/ml): 0.85* %
Mean MNBN cell frequency (%) (human lymphocytes [1]; 6.5 µg/ml): 10.10* %
Fold increases in MN over concurrent vehicle control (human lymphocytes [1]; 7.5 μg/ml): 7.2
Mean MNBN cell frequency (%) (human lymphocytes [1]; 7.5 μg/ml): 1.65* %
Fold increases in MN over concurrent vehicle control (human lymphocytes [1]; 9.0 μg/ml): 28.5
Mean MNBN cell frequency (%) (human lymphocytes [1]; 9.0 μg/ml): 6.55* %
Mean MNBN cell frequency (%) (human lymphocytes [1]; 10.0 µg/ml): 0.25%
Mean MNBN cell frequency (%) (human lymphocytes [1]; 12.0 µg/ml): 0.20%
Mean MNBN cell frequency (%) (human lymphocytes [1]; 14.0 µg/ml): 0.65* %
Fold increases in MN over concurrent vehicle control (human lymphocytes [1]; 16 μg/ml): 3.6
Mean MNBN cell frequency (%) (human lymphocytes [1]; 16.0 µg/ml): 0.90* %
Mean MNBN cell frequency (%) (human lymphocytes [1]; 19.0 µg/ml): 0.55* %
Fold increases in MN over concurrent vehicle control (human lymphocytes [1]; 25 μg/ml): 11.5
Mean MNBN cell frequency (%) (human lymphocytes [1]; 25.0 µg/ml): 2.88* %
Lowest dose where a statistically significant increase in micronuclei was observed (human lymphocytes [1]; male, human): 0.25 µg/mL
Lowest non-significant doses (micronuclei) (human lymphocytes [1]; male, human): 0.1 µg per ml
Lowest tested concentration, statistically significant increases in micronuclei evident (human lymphocytes [1]; male, human): 0.5 µg/mL
Induction of DNA repair (in words) (Bacillus subtilis): negative
Ames bacterial mutation test result (in words) (bacteria (Ames test)): negative
Plasma levels of flubendazole [6]: 81 ng/mL
Carcinogenicity (in words) (mice [5]; formulated diet, doses equivalent to a maximum of 30mg/kg in mice): Neither showed evidence of carcinogenicity
Bone marrow micronucleus test result (in words) (mouse bone marrow): negative
Mutation test result (in words) (Saccharomyces cerevisiae): negative
Carcinogenicity (in words) (rats; formulated diet, doses equivalent to a maximum of 20mg/kg in rats): Neither showed evidence of carcinogenicity
Polyploidy (in words) (CHL cells): induce polyploidy
Mean plasma concentration [7]: 610 ng/mL
cytotoxicity (in vitro; 0.050 µg/ml): 0%
cytotoxicity (in vitro; 0.075 µg/ml): 0%
cytotoxicity (in vitro; 0.100 µg/ml): 0%
cytotoxicity (in vitro; 0.250 µg/ml): 0%
cytotoxicity (in vitro; 0.5 µg/ml): 4%
cytotoxicity (in vitro; 0.500 µg/ml): 0%
cytotoxicity (in vitro; 1.0 µg/ml): 0%
cytotoxicity (in vitro; 1.00 µg/ml): 16%
cytotoxicity (in vitro; 2.0 µg/ml): 0%
cytotoxicity (in vitro; 3.0 µg/ml): 0%
cytotoxicity (in vitro; 6.0 µg/ml): 0%
cytotoxicity (in vitro; 6.5 µg/ml): 43%
cytotoxicity (in vitro; 7.5 µg/ml): 8%
cytotoxicity (in vitro; 9.0 µg/ml): 26%
cytotoxicity (in vitro; 10.0 µg/ml): 0%
cytotoxicity (in vitro; 12.0 µg/ml): 0%
cytotoxicity (in vitro; 14.0 µg/ml): 14%
cytotoxicity (in vitro; 16.0 µg/ml): 4%
cytotoxicity (in vitro; 19.0 µg/ml): 7%
cytotoxicity (in vitro; 25.0 µg/ml): 12%
Td (threshold dose) (CHO-K1 cells [2]): 0.028 µg/mL
Td–L–CI (lower confidence Td) (CHO-K1 cells [2]): 0.025 µg/mL
Mode of action of micronucleus induction (in words) (human lymphocytes [3]): acts as an aneugen
% micronuclei with a centromere (human lymphocytes [3]; 7.5 μg/ml): 80%
% micronuclei without a centromere (human lymphocytes [3]; 7.5 μg/ml): 20%
% micronuclei with a centromere (human lymphocytes [3]; 9.0 μg/ml): 88%
% micronuclei without a centromere (human lymphocytes [3]; 9.0 μg/ml): 12%
% micronuclei with a centromere (human lymphocytes [3]; 16 μg/ml): 83%
% micronuclei without a centromere (human lymphocytes [3]; 16 μg/ml): 17%
% micronuclei with a centromere (human lymphocytes [3]; 25 μg/ml): 86%
% micronuclei without a centromere (human lymphocytes [3]; 25 μg/ml): 14%
%C− micronuclei (human lymphocytes [3]; male, human): 30%
Plasma Cmax [8]: < 1 ng/mL
Revised RfD ([9]; Han Wistar [Cr1 WI(Han)]): 140.62 mg/subject/day
% Micronucleated PCE ([9]; 65 mg/kg): 1.35* %
% PCE ([9]; 65 mg/kg): 31.74%
% Micronucleated PCE ([9]; 130 mg/kg): 2.31* %
% PCE ([9]; 130 mg/kg): 33.00%
% Micronucleated PCE ([9]; 400 mg/kg): 1.94* %
Mutation test result (in words) (Drosophila melanogaster): negative
BMD10 (CHO-K1 cells [4]): 0.019 µg/mL
BMDL10 (CHO-K1 cells [4]): 0.013 µg/mL
Induction of dominant lethal mutations (in words) (mice [10]): negative
AUC(0-t) ([11]; 65 mg/kg): 15100 ng·h/mL
Cmax ([11]; 65 mg/kg): 910 ng/mL
AUC(0-t) ([11]; 130 mg/kg): 16500 ng·h/mL
Cmax ([11]; 130 mg/kg): 900 ng/mL
AUC(0-t) ([11]; 402 mg/kg): 24900 ng·h/mL
Cmax ([11]; 402 mg/kg): 1330 ng/mL
Morphological transformation (in words) [12]: morphological transformation

COC(=O)Nc1nc2ccc(C(=O)c3ccccc3)cc2[nH]1 [Mebendazole, mebendazole]
BMD10 (CHO-K1 cells [4]): 0.024 µg/mL
BMDL10 (CHO-K1 cells [4]): 0.018 µg/mL
Oral bioavailability [13]: around 2%

CO[C@@]12[C@H](COC(N)=O)C3=C(C(=O)C(C)=C(N)C3=O)N1C[C@@H]1N[C@@H]12 [Mitomycin C, mitomycin C]
Mean MNBN cell frequency (%) (human lymphocytes [1]; male, human): 8.70* %

CCCOc1ccc2nc(NC(=O)OC)[nH]c2c1 [Oxibendazole, oxibendazole]
Td (threshold dose) (CHO-K1 cells [2]): 0.032 µg/mL
Td–L–CI (lower confidence Td) (CHO-K1 cells [2]): 0.032 µg/mL
BMD10 (CHO-K1 cells [4]): 0.015 µg/mL
BMDL10 (CHO-K1 cells [4]): 0.010 µg/mL

COC(=O)Nc1nc2ccc([C@H](O)c3ccc(F)cc3)cc2[nH]1 [R-reduced flubendazole]
Cytotoxicity (%) (human lymphocytes [1]): 3.0%
Lowest dose, significant increase in micronuclei seen (human lymphocytes [1]): 1.1 µg per ml

COC(=O)Nc1nc2ccc(C(O)c3ccc(F)cc3)cc2[nH]1 (stereo not drawn) [S-reduced flubendazole]
Cytotoxicity (%) (human lymphocytes [1]): 0.0%

CC[C@]1(O)C[C@@H]2CN(CCc3c([nH]c4ccccc34)[C@@](C(=O)OC)(c3cc4c(cc3OC)N(C)[C@H]3[C@@](O)(C(=O)OC)[C@H](OC(C)=O)[C@]5(CC)C=CCN6CC[C@]43[C@@H]65)C2)C1 [Vinblastine, vinblastine sulfate]
Fold increases in MN over concurrent vehicle control (human lymphocytes [1]; 0.12 μg/ml): 56.6
Frequency of micronucleated binucleate cells (%) (human lymphocytes [1]; male, human): 9.25* %

c1ccc2[nH]c(-c3cscn3)nc2c1 [thiabendazole]
MNBN induction in CHO-K1 cells (in words) (CHO-K1 cells [2]): inactive
